Reference: PMC7870846, “Incorporation of sensing modalities into de novo designed fluorescence-activating proteins” (Nature Communications, 2021)
Marks after values point to notes of the source that are not given here.

How the values were obtained:
mFAP10 = biological target: T1, mFAP10; experiment: Fluorescence titration of DFHBI or DFHBI-1T into 20.0 nM purified protein in high-salt Tev cleavage buffer (25.0 mM Tris, 100 mM NaCl, pH 8.00), excitation 468 nm and emission 530 nm, means of eight technical replicates fit to a single-binding site isotherm.; conditions: n = 8
T1 construct: de novo designed beta-barrel; large-scale purification and SEC
Source text: (§1) Fig. 1 Characterization of brighter and chromophore-specific mFAPs. a Computational model of de novo designed β-barrel variant mFAP2b showing protein backbone (cartoon) and bound DFHBI chromophore (sticks). b, c Chemical structures of DFHBI and DFHBI-1T, respectively. d, e In vitro titration of d DFHBI or e DFHBI-1T with mFAP2 (gray), mFAP2b (lime), mFAP2a (violet), and mFAP10 (pink) proteins. Error bars represent s.d. of the mean of eight technical replicates. […] The images (left) are the pseudocolored normalized fluorescence intensity per pixel. Scale bars represent 10 microns. Imaging was independently repeated twice with similar results. The computational models (right) show the residues unique to mFAP2b (V13, M15) (lime sticks) or mFAP2a (A13, F15) (violet sticks). Intermolecular hydrogen bonds to the chromophore are shown as black dotted lines. […] Source data is available for Fig. 1f–i.
(§2) Fluorescence endpoints were measured on a Synergy Neo2 hybrid multi-mode reader (BioTek) in flat bottom, black polystyrene, non-binding surface 96-well microplates (Corning 3650). In measuring chromophore-binding affinities (Fig. 1d, e), mFAP2, mFAP2a, and mFAP2b, and mFAP10 were produced by large-scale protein purification and SEC purification. Proteins were aliquoted in eight technical replicates in 200 μL final volumes to 20.0 nM final concentration in ten serial dilutions ( 10 dilution factor) of DFHBI starting from 31.6 μM DFHBI or 31.6 μM DFHBI-1T final concentrations, including an eleventh condition without chromophore. Fluorescence was excited at λex = 468 nm and fluorescence emission measured at λem = 530 nm. Background fluorescence endpoints of wells with identical chromophore concentrations but purified protein replaced with an identical volume of high-salt Tev cleavage buffer were measured, and fluorescence endpoints subtracted from those measured with protein. Background-subtracted data were averaged and the means normalized from 0 to 1 and fit to a single-binding site isotherm function using non-linear least squares fitting to obtain a fitted Kd value (Table 1), and the fit scaled to the maximum mean value (Fig. 1d, e).

mFAP2a = biological target: T2, mFAP2a; experiment: as above; conditions: n = 8
T2 construct: de novo designed beta-barrel; large-scale purification and SEC
Source text: as §1, §2

mFAP2b = biological target: T3, mFAP2b; experiment: as above; conditions: n = 8
T3 construct: de novo designed beta-barrel; large-scale purification and SEC
Source text: as §1, §2

mFAP_pH [1] = biological target: T4, mFAP_pH; experiment: Fluorescence titration of DFHBI into 500 nM protein in Na2HPO4-citrate buffer with 143 mM NaCl at pH 7.34 (excitation 483 nm, emission 503 nm), fit to a single-binding site isotherm.; conditions: read-out: affinities (Kd values), phenolate form of DFHBI
T4 construct: de novo designed beta-barrel; large-scale protein purification
Protocol: (§3) In measuring the protonated (phenolic) and deprotonated (phenolate) DFHBI affinities with mFAP_pH (Supplementary Fig. 5c), fluorescence endpoints were measured on a Synergy Neo2 hybrid multi-mode reader (BioTek) in flat bottom, black polystyrene, non-binding surface 96-well microplates (Corning 3650). mFAP_pH was produced by large-scale protein purification[49] and aliquoted to 200 μL final volumes at 500 nM final concentration in seven serial dilutions ( 10 dilution factor) of DFHBI starting from 10.0 μM DFHBI final concentration, including an eighth condition without chromophore, in Na2HPO4-citrate buffer supplemented with 143 mM NaCl final concentration at either pH 3.61 or pH 7.34. For pH 3.61 fluorescence was excited at λex = 379 nm and fluorescence emission measured at λem = 498 nm, and for pH 7.34 fluorescence was excited at λex = 483 nm and fluorescence emission measured at λem = 503 nm. At each pH, background fluorescence endpoints of wells with identical chromophore concentrations but purified protein replaced with an identical volume of buffer were measured, and fluorescence endpoints subtracted from those measured with protein. Background-subtracted data were normalized from 0 to 1 and fit to a single-binding site isotherm function using non-linear least squares fitting to obtain the reported Kd values, which were less than the protein concentrations tested.

mFAP_pH [2] = biological target: T4, mFAP_pH; experiment: Fluorescence titration of DFHBI into 500 nM protein in Na2HPO4-citrate buffer with 143 mM NaCl at pH 3.61 (excitation 379 nm, emission 498 nm), fit to a single-binding site isotherm.; conditions: read-out: affinities (Kd values), phenolic form of DFHBI
Protocol: as §3

[3] = cited from earlier work
[4] = pH-dependent fluorescence assays (pH titration); type: biochemical; conditions: from pH 8.38 to pH 4.79
Protocol: In measuring pH-dependent fluorescence (Fig. 3d–i), Na2HPO4-citrate buffer supplemented with 150 mM NaCl at unique pH values were produced via mixing various volumes of 100 mM citric acid (Sigma Aldrich), 200 mM Na2HPO4 (Sigma Aldrich), and 2.00 M NaCl, and final pHs quantified via an Accumet AB15 Basic pH meter (Fisher Scientific). pHRed and pHluorin2 were produced via large-scale protein purification, 6xHis-tag removal and size-exclusion chromatography (SEC) purification, and mFAP_pH and mFAP2b were produced via large-scale protein purification and SEC purification. pH-dependent fluorescence was measured at […] final protein concentration for mFAP2b, mFAP_pH and pHRed, and 170 nM final concentration for pHluorin2, at each pH in technical triplicate in 200 μL final volumes per well. […] In measuring fluorescence excitation spectra at each pH (Fig. 3d), excitation wavelengths were set to the range λex = 300–530 nm and fluorescence emission measured at λem = 562 nm. In measuring pH-dependent fluorescence excitation spectra at pH 3.76 and pH 7.34 (Fig. 3f, g), excitation spectra were measured using excitation wavelengths in the range λex = 300–540 nm and emission wavelength λem = 592 nm. […]

SERCA pumps = experiment: Pharmacological inhibition of SERCA Ca2+ pumps in cardiomyocytes; type: cell-based, human; conditions: 20.0 µM final; 3.00 µM DFHBI
Protocol: Pharmacological inhibition of SERCA Ca^2+ pumps: Cardiomyocytes in 2.0 mL of Tyrode’s solution labeled with 3.00 µM DFHBI were imaged at 2 Hz for 30 min with an sCMOS camera (Photometrics Prime95B) and 20x magnification lens (Leica HCX PL FLUOTAR L 20x/0.40 NA CORR). A stock solution of 20.0 mM cyclopiazonic acid (CPA) (Tocris, 1235) in 100% anhydrous DMSO was prepared. Two milliliters of Tyrode’s solution containing 3.00 µM DFHBI and 40.0 µM CPA was administered at ~10 min from initial image acquisition to inhibit SERCA pumps and disrupt Ca^2+ recovery into the SR after contraction. Fluorescence fold-change over the whole field of view in each frame was calculated by Eq. (11), where F is the fluorescence per frame, and F0 is the fluorescence at the first frame (Supplementary Fig. 19c).

Row | Compound | Kd (mFAP10) | Kd (mFAP2a) | Kd (mFAP2b) | Reported quantum yield [3] | other results
1 | CC1=N/C(=C\c2cc(F)c(O)c(F)c2)C(=O)N1C [DFHBI] | 17 ± 7.9 nM | 150 ± 11 nM | 1.8 ± 0.25 µM | – | Kd (mFAP_pH [1]): ~160 nM; Kd (mFAP_pH [2]): ~190 nM
2 | CC1=N/C(=C\c2cc(F)c(O)c(F)c2)C(=O)N1CC(F)(F)F [DFHBI-1T, (Z)-4-(3,5-difluoro-4-hydroxybenzylidene)-2-methyl-1-(2,2,2-trifluoroethyl)-1H-imidazol-5(4 H)-one] | – | – | – | 0.00098^e | –
3 | pHRed: previously reported pH sensor protein [reference compound] | – | – | – | – | fold-change in ratiometric fluorescence (Fratio) [4]: ~ 34 fold
4 | CC(=O)C1=C(O)[C@@H]2[C@H]3c4c[nH]c5cccc(c45)C[C@H]3C(C)(C)N2C1=O [cyclopiazonic acid] | – | – | – | – | effect on SR fluorescence of EF1n_mFAP2b sensor (SERCA pumps): sustained increase in fluorescence in the SR
5 | CC1=N/C(=C\c2cc(F)c(O)c(F)c2)C(=O)N1C [DFHBI, 3,5-difluoro-4-hydroxybenzylidene imidazolinone] | – | – | – | 0.0007^e | Absolute quantum yield [3]: 0.001^f; pKa ([3]; free, unbound in solution): ~ 5.4
6 | CC1=N/C(=C\c2cc(F)c(O)c(F)c2)C(=O)N1CC(F)(F)F [DFHBI-1T, (Z)-4-(3,5-difluoro-4-hydroxybenzylidene)-2-methyl-1-(2,2,2-trifluoroethyl)-1H-imidazol-5(4H)-one] | 45 ± 6.5 nM | 5800 ± 860 nM | 11 ± 3.1 µM | – | –
